Assay: Chiral / configurational stability at the carbon alpha to the ketone
Format: physicochemical

For `[2H]C1(NC(=O)[C@H](CC(C)C)NC(=O)c2ccc3ccccc3n2)CCCN(S(=O)(=O)c2cccc[n+]2[O-])C([2H])([2H])C1=O` (stereo partly drawn) [Formula (I), quinoline-2-carboxylic acid {(S)-3-methyl-1-[(2,2,4-trideuterio)-3-oxo-1-(1-oxy-pyridine-2-sulfonyl)-azepan-4-ylcarbamoyl]-butyl}amide], the “configurational stability at the carbon center alpha to the ketone” value (compared to the corresponding 5 and 6 membered ring compounds) was “configurationally more stable” and the chiral stability (compared to the protonated isomer) was “superior chiral stability”.

From patent publication US6596715B1, “Protease inhibitors” (SmithKline Beecham Corporation, priority 1999, dated 2003)
